Where two headings read alike, the source gives them in different places. Non-standard residues stand in square brackets, D forms with d. Residues, ends and D or L forms follow the SMILES beside them.
Tests used:
murine red blood cells [1] = settings: cited from earlier work
murine red blood cells [2] = test: Red blood cell hemolysis; type: cell-based, mouse; design: RBC Hemolysis (HD50): unit not given here
Outline: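 Hemolysis read as A560 of supernatant, scaled between saline (0%) and 1% Triton X-100 (100%) controls; peptides were serially diluted onto 5% murine red cells in saline plus 10% FBS and incubated 30 min at 37° C.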

[3] = test system: S. aureus (MRSA) ATCC 33591; type: cell-based, Staphylococcus aureus; settings: for MRSA (in vitro activity): Table 9
Outline: (§1)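 MIC read from NCCLS-style broth dilution. Peptide concentrations were set by quantitative HPLC or Trp UV absorbance at 280 nm, then serially halved from about 400 to 2 μg/ml in 5% DMSO/9% sucrose. Inoculum: approximately 2.5×10^5 cfu/ml.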

[4] = test system: vancomycin-resistant Enterococus faecalis (VRE)(ATCC 51575); type: cell-based, Enterococcus faecalis; design: key to VRE (in vitro activity): peptide concentration in μg/ml (broth dilution assay); settings: for VRE (in vitro activity): Table 9
Outline: as §1

[5] = Proton transport in vesicles with pH gradient; settings: vesicles pH 6.5 inside, pH 5.5 outside
Experimental: Formation of supramolecular structures that can permeabilize membranes was also inferred from proton transport activity. Vesicles were prepared having pH 6.5 inside and pH 5.5 in the outside bulk solution. The collapse of the imposed pH gradient in these vesicles, upon formation of the putative transmembrane channel structure, was studied by monitoring the fluorescence intensity of an entrapped pH-sensitive dye. (V. E. Carmichael et al, in J.Am. Chem. Soc. (1989), vol. 111, pages 767-769). Addition of peptide cyclo[-(Trp-D-Leu)3-Gln-D-Leu-]
Unilamellar vesicles were prepared by the reverse-phase evaporation using DPPC, OPPC, cholesterol in the ratio of 1:1:2 in a solution containing 5(6)-carboxyfluorescein (20 mM in phosphate/saline buffer: 137 mM NaCl, 2.6 mM KCI, 6.4 mM Na2HPO4, 1.4 mM KH2PO4, pH 6.5) according to the method of F. Szoka et al. in Proc. Natl. Acad. Sci. USA (1978), vol. 75, pages 4194-4198. Liposomes were then sized by multiple extrusions through Nucleopore® polycarbonate membranes (10 times, 50 psi, using 0.8 and 2×0.4 micron filter stacks) and the untrapped 5(6)-carboxyfluorescein was removed by size exclusion chromatography (Sephadex G-25 column 1×30 cm) using the same phosphate/saline buffer according to the method of F. Olson et al. in Biochim. […] Vesicles formed in this way are approximately 150 nanometer in diameter as determined by electron microscopy. […] In each experiment, […] of the stock vesicle solution (3.5×10^−3 M in phospholipids) was added to pH 5.5 buffer (1.3 ml, 137 mM NaCl, 2.6 mM KCl, 6.4 Na2HPO4, 1.4 KH2PO4) and placed in a 1 cm quartz cuvette inside a stirring thermojacketed sample holder of the fluorescence instrument and equilibrated at 25° C. for 15 minutes with gentle stirring. To the cuvette, through an injector port, […] of the peptide dissolved in DMSO was added with continuous fluorescence monitoring at 520 nm (excitation at 470 nm). The observed data were then normalized for comparison into the fractional change in fluorescence ((I0-It)/(I0-I∞)) (V. E. Carmichael et al, in J.Am. Chem. Soc. (1989), vol. 111, pages 767-769)).

E. coli JM109 (DE3) = test: Time-killing curve, E. coli; type: cell-based, Escherichia coli; settings: FIG. 8b; at MIC concentrations
Experimental: (§2) The speed at which several of the cyclic peptides of the invention kill E. coli JM 109 (DE3), Enterococcus faecium SP 180 and S. aureus (MRSA) (ATCC No. 33591 and 33592) was further tested at room temperature and/or at 37° C. A lower temperature tends to enrich the bacterial cultures for mature bacteria because the bacteria are not growing quickly. […] The presence or absence of immature bacteria in the culture may influence the rate at which the bacteria are killed, because immature bacteria tend to be more susceptible to many forms of antibiotics.
In FIG. 8b, the log of the number of E. coli colony forming units (cfu) per ml of culture is plotted versus time treated with cyclo[KRKWLWLW] (closed triangles), cyclo[KQRWLWLW] (closed circles), cyclo[KHLWLW] (closed squares), and cyclo[KKWLW] (open squares) at MIC concentrations. […] Cyclic peptide cyclo[KHKLWLW] kills effectively all E. coli within about 90 minutes. Cyclic peptides cyclo[KRKWLWLW] and cyclo[KKWLW] kill effectively all of the E. coli within about 130 minutes. […] Nonetheless, these cyclic peptides kill both types of bacteria very quickly.

[6] = test system: Bacillus cereus ATCC 11778; type: cell-based
Outline: as §1

[7] = test system: Streptococcus pneumoniae (ATCC 6301); type: cell-based
Outline: as §1

[8] = test system: S. aureus (MRSA) (ATCC No. 33591); test: Time-killing curve, S. aureus MRSA ATCC 33591; type: cell-based, Staphylococcus aureus; settings: FIG. 8a; at MIC concentrations
Experimental: as §2
To generate the data shown in FIG. 8a, the log of the number of colony forming units (cfu) per ml of culture was determined as a function of time after treatment of S. aureus (MRSA) (ATCC No. 33591) with cyclo[KHLWLW] (closed circles), cyclo[KRKWLWLW] (closed triangles), and cyclo[KQRWLWLW] (open squares) at MIC concentrations. […] The reduction in cfu count was greater than 3 log units. Cyclic peptide cyclo[KHLWLW] killed effectively all S. aureus (MRSA) within about 60 minutes.

E. coli JM109(DE3) = type: cell-based, Escherichia coli; settings: JM109
Outline: as §1

Toxicity studies in mice = type: in vivo; design: LD50(IP) / LD50(IV): unit not given here
Experimental: Peptides were tested for toxicity in vivo using procedures similar to those described previously. […] Mice (male Balb-C) in groups of 4-8 were given via IV, IP or SQ single bolucdoses of peptides and monitored for 14 days. Toxicity of sublethal doses was assessed based on the behavior and appearance of the mice after peptide administration compared to control mice receiving only vehicle. Signs of acute toxicity included lack of activity, red feet and tail, faster breathing. Death was defined as the end point for lethal doses of peptides.
Toxicology Studies: Initial toxicology studies in mice were conducted to evaluate various routes of drug administration, maximum tolerable dose, and blood and tissue toxicity. Two mice in each dose study were injected with a bolus intravenous (IV), intraperitoneal (IP), or subcutaneous (SQ) doses of peptide SEQ ID NO:8, 18, and 26. For each study, two control animals received vehicle only and no peptide. […] Signs of acute toxicity included any one of the following: lack of activity, red feet and tail, or faster breathing. […] A regimen of […] of peptide SEQ ID NO:18 for three consecutive days was administered to two mice IP and two mice SQ.

[9] = test system: S. aureus MRSA (ATCC 33591); test: Mouse peritonitis model, MRSA protection; type: in vivo, mice; design: PD50 MRSA: unit not given here
Experimental: Bacteria were prepared for in vivo using procedures similar to those as previously described. […] S. aureus MRSA bacteria (ATCC 33591) were grown at 37° C. in 5 mL of Antibiotic Medium-3 (AM-3, Difco Laboratories) with agitation for 12 hours to a stationary phase. Cells were collected by centrifugation, washed twice with saline solution and resuspended in about 10 mL of saline to an O.D.650 of 1.2. This suspension was diluted ten times in a sterilized 5% mucin (Difco) in saline to a concentration of 2-4×10^7 cfu/ml (actual inoculum size was verified by colony counts on agar plates).
Peptides of the invention were tested in mice to ascertain whether they would protect the mice against bacterial infection using procedures similar to those described in N. Frimodt-Moller et al., The Mouse Peritonitis/Sepsis Model, in Zak et al. (eds.) HANDBOOK OF ANIMAL MODELS OF INFECTION 127-37 (Academic Press 1999).
Male Balb-C mice (6 weeks old, approximately 20 g) were used in the study. Staphylococcus aureus MRSA bacteria (ATCC 33591) were grown at 37° C. with agitation for 12 hours to a stationary phase. Cells were collected by centrifugation, washed twice with saline and resuspended to an O.D.650 of 1.4. This suspension was diluted ten times with saline and resuspended to a concentration of 3-5×10^7 cfu/ml. For each peptide five groups of eight mice per group were infected I.P. with 0.5 ml of the above Staphylococcus aureus MRSA preparation (lethal dose). Forty-five minutes to an hour after infection, each group was treated with a different dose of peptide and a control group received vehicle only. Mice were monitored for fourteen days; death was defined as the end point. Median protecting doses (PD50) were calculated following the Reed and Muench method. […] For IV and SQ models peptide was administered immediately after IP infection.

[10] = trypsin, α-chymotrypsin, subtilisin, blood plasma; RP-HPLC over 24 h
Experimental: Cyclic peptides having SEQ ID NO:13, 18, 26, and 29 were assayed for proteolytic susceptibility.

[11] = media a: anti-microbial media-3 (AM-3)

Compound	proton / ion transport activity [5]	B. cerius MIC [6] [µg/mL]	S. pneum. MIC [7] [µg/mL]	RBC Hemolysis (HD50) (murine red blood cells [2])	MRSA MIC ([3]; ATCC 33591) [µg/mL]	S. aureus (MRSA) MIC ([3]; ATCC 33591) [µg/mL]	MRSA (in vitro activity) [3, 11]	VRE MIC ([4]; ATCC 51575) [µg/mL]	VRE (in vitro activity) ([4]; media a: AM-3)	other results
MELLITIN [linear peptide that is hemolytic against mammalian red blood cells, reference compound]	–	–	–	–	–	–	–	–	–	hemolytic concentration against mammalian red blood cells in vitro (murine red blood cells [1]): about 10 μg/ml; RBC Hemolysis (HD50) (murine red blood cells [2]; Table 9): 10; MRSA (in vitro activity) ([3]; media b: cation adjusted Meuller Hinton broth (MHBII)): 6.3; VRE (in vitro activity) ([4]; media c: Brain Heart Infusion (BHI)): 6.3
cyclo[-(Trp-D-Leu)3-Gln-D-Leu-] [SEQ ID NO:2]	rapid collapse of the pH gradient	–	–	–	–	–	–	–	–	–
cyclo[-(Gln-D-Leu)4]	does not display any ion transport activity	–	–	–	–	–	–	–	–	–
CC(C)C[C@H]1NC(=O)[C@H](Cc2c[nH]cn2)NC(=O)[C@@H](CCCCN)NC(=O)[C@H](Cc2c[nH]c3ccccc23)NC(=O)[C@@H](CC(C)C)NC(=O)[C@H](Cc2c[nH]c3ccccc23)NC1=O [SEQ ID NO:27, cyclo-(D-Lys-His-D-Leu-Trp-D-Leu-Trp)] (cyclo(H[dL]W[dL]W[dK]))	–	5	5	25	10	10	10	40	40	time to kill effectively all E. coli (E. coli JM109 (DE3)): ≤ 90 min; time to kill effectively all S. aureus (MRSA) [8]: ≤ 60 min; E. coli MIC (E. coli JM109(DE3)): 100 µg/mL
CC(C)C[C@H]1NC(=O)[C@H](Cc2c[nH]c3ccccc23)NC(=O)[C@@H](CCCCN)NC(=O)[C@H](CCCNC(=N)N)NC(=O)[C@@H](CCCCN)NC(=O)[C@H](Cc2c[nH]c3ccccc23)NC(=O)[C@@H](CC(C)C)NC(=O)[C@H](Cc2c[nH]c3ccccc23)NC1=O [SEQ ID NO:19, D-Lys-Arg-D-Lys-Trp-D-Leu-Trp-D-Leu-Trp] (cyclo([dK]R[dK]W[dL]W[dL]W))	–	3	5	50	15	10	15	8	8	time to kill effectively all S. aureus (MRSA) [8]: within about five minutes
CC(C)C[C@H]1NC(=O)[C@H](CCCCN)NC(=O)[C@@H](CCCCN)NC(=O)[C@H](Cc2c[nH]c3ccccc23)NC(=O)[C@@H](CC(C)C)NC(=O)[C@H](Cc2c[nH]c3ccccc23)NC1=O [SEQ ID NO:26, cyclo-(D-Lys-Lys-D-Leu-Trp-D-Leu-Trp)] (cyclo(K[dL]W[dL]W[dK]))	–	> 10	30	80	10	10	10	40	40	LD50(IP) (Toxicity studies in mice; Table 12, male Balb-C mice): 75; LD50(IV) (Toxicity studies in mice; Table 12, male Balb-C mice): 24; LD50 at 14 days (Toxicity studies in mice; male, Balb-C, mouse, in vivo, ip, Table 13): 75 mg/kg; signs at highest dose (Toxicity studies in mice; mice, IP 50 mg/kg): signs of acute toxicity that were not observable after one hour; tolerability (Toxicity studies in mice; mice, IP, maximum tested dose 50 mg/kg): tolerated up to the maximum tested IP dose; PD50 S. aureus MRSA infection [9]: 15 mg/kg; PD50 protective dose where 50% of animals survive ([9]; FIG. 6, mice challenged with lethal doses of MRSA): 10 ± 2 mg/kg; PD50 MRSA ([9]; Table 12, male Balb-C mice, IP infection, IP peptide): 15; In Vivo MRSA PD50 ([9]; Table 13): 15 mg/kg; protection of mice from MRSA infection ([9]; single bolus IP dose of appropriate amount, 45-60 min after infection): completely protect; proteolytic stability [10]: stable; E. coli MIC (E. coli JM109(DE3)): 17 µg/mL; In Vitro RBC MIC (murine red blood cells [2]): 80 µg/mL; In Vitro MRSA MIC ([3]; ATCC 33591): 10 µg/mL; In Vitro VREF MIC ([4]; ATCC 51575): 40 µg/mL
cyclo[-(^MeN-D-Ala-Phe)4-]	does not promote proton transport activity	–	–	–	–	–	–	–	–	–

Reference: US20050107289A1, “Anti-microbial peptides and compositions” (priority 2001, published 2005)
